Results taken from US20090317474A1, “USE OF POLYETHYLENE GLYCOL IN INFLAMMATION RELATED TOPICAL DISORDERS OR DISEASES AND WOUND HEALING” (Flen Pharma N.V., priority 2006, published 2009).

How the values were obtained:
[1] = test system: IL-6; assay: IL-6 expression by J774 macrophages after heat inactivated E. coli stimulation; type: cell-based, murine; details: J774 cells, with vs without PEG
Method: The cells were cultured with or without PEG (PEG600 diacid) The expression of IL-6 is lowered by about 30% when PEG is added.

[2] = test system: VEGF; assay: VEGF expression by fibroblasts (ELISA); type: cell-based, murine; details: overnight
[3] = test system: proMMP-9; assay: proMMP-9 secretion by J774 macrophages challenged with heat inactivated E. coli; type: cell-based, murine
Method: Macrophage cells were pre-conditioned for 30 min. with varying concentrations of PEG400 (0.31-10% w/w) and then challenged with heat inactivated E. coli bacteria. Next, cells were further incubated overnight. The supernatant of cells was analyzed for proMMP-9 according to the manufacturer's indications (R&D systems, Abingdon, UK).

[4] = test system: IL-6; assay: IL-6 expression in 3T3 cells incubated with hydrogel; type: cell-based, murine; details: Na+-Ca++ alginate gel with 2.5% PEG400 vs gel without PEG400, 16 h
Method: (§1) J774 macrophages were pre-conditioned for 30 min. with the gels and were then challenged with 100 ng/ml LPS. 3T3 cells were not challenged with bacteria. Next, the murine macrophage J774 and murine fibroblast 3T3 cells were incubated with the gels for 16 h at 37° C., 5% CO2. Hereafter, the medium was collected, centrifuged at 14,000 rpm during 20 min to remove particulate material and assayed for the indicated secreted proteins. Results are the mean of two independent experiments and are expressed as percentages of the control experiment.
(§2) A hydrogel was made by dissolving 2 g Kelset (Na^+—Ca^++ alginate) and 5 g PEG400 in a final volume of 100 ml growth medium [DMEM high glucose, 10% FCS, 4 mM L-Glutamine, antibiotics]. This mixture was further diluted with an additional 100 ml of growth medium to lower the viscosity of the solutions. The final concentration of PEG400 was 2.5%.
(§3) A similar solution without PEG400 was used as control.

[5] = test system: J774 macrophages; assay: Toxicity of PEG on cultivated cells (tetrazolium cell survival); type: cell-based, murine
Method: (§4) Cells were grown in DMEM (3T3 fibroblasts and HaCat keratinocytes) or in RPMI1640 (J774 macrophages). Both media were supplemented with heat inactivated 10% Fetal Calf Serum (Sigma), 2 mM L-Glutamine (Sigma) and antibiotics (Sigma). Cells were seeded subconfluent in 96 well plates and contacted for about 16 hours with PEG test compounds which were dissolved in growth media (expressed as w/w end concentrations).
(§5) Cell survival was assayed by the conversion of soluble tetrazolium salt into an insoluble and pink colored formazan (absorption measured at 570 nm).
(§6) Cells were incubated overnight with varying concentrations of PEG 400 (0.31-10% w/w). From 5% onwards, PEG has a cytotoxic effect on in vitro cultivated cells, especially on keratinocytes (FIG. 1A) and on macrophages (FIG. 1B), and to a lesser extent on fibroblasts (FIG. 1C).

[6] = test system: 3T3 fibroblasts; assay: as above; type: cell-based, murine
Method: as §4, §5, §6

[7] = test system: pro-MMP9; assay: pro-MMP9 secretion by LPS-challenged J774 macrophages incubated with hydrogels; type: cell-based, murine
Method: as §1, §2
(§7) A hydrogel was made by dissolving 1 g Carbopol (polyacrylate), 5 g PEG400, 2.1 g Arginine and 3 g PCL (cetearyl octanoate) in a total volume of 100 ml growth medium [DMEM(high glucose), 10% FCS, 4 mM L-Glutamine, antibiotics]. This mixture was further diluted with an additional 100 ml of growth medium to lower the viscosity of the solutions. Cultures of murine macrophages J774 were used. The final concentration of PEG400 in contact with the cells was 2.5%. A similar solution without PEG400 was used as control.
(§8) A hydrogel was made by dissolving 3 g CMC ([…]), and 5 g PEG400 in a final volume of 100 ml growth medium [DMEM(high glucose), 10% FCS/4 mM L-Glutamine, antibiotics]. This mixture was further diluted with an additional 100 ml of growth medium to lower the viscosity of the solutions. Cultures of murine macrophages J774 were used. The final concentration of PEG400 was 2.5%. A similar solution without PEG400 was used as control.

[8] = test system: Collagen type III; assay: Collagen III expression by 3T3 fibroblast cells; type: cell-based, murine; details: 3T3 cells
Excerpt: This increase of collagen III expression was significant compared to control.

[9] = test system: VEGF; assay: VEGF expression by fibroblast cells (3T3), comparison of humectants; type: cell-based, murine; details: 3T3 fibroblast cells
Excerpt: (§9) The expression of VEGF upon administration of PEG and/or other humectants was investigated on vascular endothelial cells (SVEC) and on fibroblast cells (3T3). The beneficial role of VEGF expression in the healing of ischemic wounds is described in Corrall et al. (1999) Arch. Surg. 134, 200-205.

[10] = test system: VEGF; assay: VEGF expression in 3T3 cells incubated with hydrogel; type: cell-based, murine; details: Na+-Ca++ alginate gel with 2.5% PEG400 vs gel without PEG400, 16 h
Method: as §1, §2, §3

[11] = test system: HaCat keratinocytes; assay: Toxicity of PEG on cultivated cells (tetrazolium cell survival); type: cell-based
Method: as §4, §5, §6

[12] = test system: VEGF; assay: VEGF expression by vascular endothelial cells (SVEC); type: cell-based
Excerpt: as §9

[13] = test system: IL-6; assay: IL-6 secretion by LPS-challenged J774 macrophages incubated with hydrogels; type: cell-based, murine
Method: as §1, §2, §7, §8

[14] = overnight incubation, PEG 400 0.31-10% w/w
[15] = J774, alginate gel, 2.5% PEG400, 100 ng/ml LPS
[16] = J774, carboxymethylcellulose gel, 2.5% PEG400, 100 ng/ml LPS
[17] = J774, polyacrylate (Carbopol) gel, 2.5% PEG400, LPS

## PEG 600 diacid
[1]
  lowering of IL-6 expression: about 30%
[2]; 3T3 fibroblasts, increasing amounts 0.078-0.625% w/w
  VEGF expression: influenced
[3]; J774 cells challenged with heat inactivated E. coli after 30 min pre-incubation
  pro-MMP9 expression: lowered

## Polyethylene glycol [PEG 400]
[4]
  IL-6 expression: decreased
[5]; concentrations below 5%
  effect on cell survival: no detrimental effect
[5]; [14]
  concentration from which PEG has a cytotoxic effect: ≥ 5%
[6]; concentrations below 5%
  effect on cell survival: no detrimental effect
[6]; [14]
  concentration from which PEG has a cytotoxic effect: ≥ 5%
[7]; [15]
  secretion of pro-MMP9: reduced
[7]; [16]
  expression of pro-MMP9: less reduced
[7]; [17]
  expression of pro-MMP9: reduced
[2]; fibroblasts, 0.31-10% w/w tested
  PEG400 concentration of maximum VEGF expression: 5%
[2]; fibroblasts, PEG400 concentrations between 2% and 10%
  VEGF expression: increases
[8]
  collagen III expression compared with 4% propylene glycol and 4% glycerol: highest expression
[8]; 4%
  increase of collagen III expression compared to control: significant
[9]
  VEGF expression compared with 4% propylene glycol and 4% glycerol: highest expression
[10]
  VEGF expression: slightly increased
[3]; J774, PEG 400 concentration from about up to roughly 1% (w/w), 30 min pre-conditioning, heat inactivated E. coli, overnight
  secretion of proMMP9: significantly reduced
[11]; keratinocytes, concentrations below 5%
  effect on cell survival: no detrimental effect
[11]; keratinocytes, overnight incubation, PEG 400 0.31-10% w/w
  concentration from which PEG has a cytotoxic effect: ≥ 5%
[11]; summary of Example 1, cell type not specified
  concentration from which PEG400 is cytotoxic (summary statement): ≥ 5 % (w/w)
[12]
  VEGF expression compared with 4% propylene glycol and 4% glycerol: highest expression
[13]; [15]
  secretion of IL-6: reduced
[13]; [16]
  expression of IL-6: clearly reduced
[13]; [17]
  expression of IL-6: reduced
